Measured values as given in publication PMC6273578, “Design, Synthesis and Biological Evaluation of Benzohydrazide Derivatives Containing Dihydropyrazoles as Potential EGFR Kinase Inhibitors” (Molecules, 2016).
Where two headings read alike, the source gives them in different places.

Columns and labels:
EGFR = settings: read-out: EGFR inhibitory activity IC50, cited from earlier work
[1] = tested on: 293T human kidney epithelial cells; experiment: Cytotoxicity test (MTT) on 293T cells; settings: read-out: median cytotoxic concentration CC50; 293T cells, MTT assay, 24 h
Protocol: (§1) The cytotoxic activity in vitro was measured by the colorimetric MTT assay. […] For the cytotoxicity assay, 20 μL of MTT (5 mg/mL) was added per well 4 h before the end of the incubation. After removing the supernatant, 200 μL DMSO was added to dissolve the formazan crystals. The absorbance at λ 570 nm was read on an LX300 Epson Diagnostic microplate reader, untreated cells were used as negative controls.

HeLa cells = experiment: MTT antiproliferative assay, HeLa; type: cell-based, human; settings: read-out: In vitro antiproliferative activity IC50, HeLa
Protocol: (§2) IC50 values of the test compounds against A549, MCF-7, Hela and HepG2 cells were obtained from State Key Laboratory of Pharmaceutical Biotechnology, Nanjing University, and were determined by a standard (MTT)-based colorimetric assay (Beyotime Inst. Biotech., Nanjing, China). Tumor cell lines were grown to mid-log phase and then diluted to […] making sure they were seeded in 96-well plates (Philas, Nanjing, China) at a density of 5 × 10^3–1 × 10^4 cells per well. The outer wells containing 1 × PBS solution of the plate are not used for the assay to avoid the possibility of edge effects. The plate was incubated at 37 °C in a 5% CO2 incubator in DMEM containing 10% fetal bovine serum (FBS, Gibco, Waltham, MA, USA) for 24 h. Then, we added a 100-μL series concentration of drug-containing medium into the wells to maintain the final concentration of drug as 100, 10, 1 and 0.1 μmol/L. After 12 h, cell survival was determined by the addition of a MTT (3-(4,5-dimethylthiazol-2-yl)-2,5-diphenyl trtrazolium bromide) solution (10 μL of 5 mg/mL MTT in 1 × PBS). We waited for 4 h proliferation, discarded the medium and quickly added 150 μL DMSO per well, shaking the plates well for 10 min to ensure complete dissolution. Optical absorbance was measured at 570 nm on a microplate reader (Bio-Rad, Hercules, CA, USA). Survival ratios are expressed in percentages with respect to untreated cells. The experiments were replicated at least three times to verify the methodology reproducibility when using the above-mentioned conditions.

HepG2 cells = experiment: MTT antiproliferative assay, HepG2; type: cell-based, human; settings: read-out: In vitro antiproliferative activity IC50, HepG2
Protocol: as §2

MCF-7 cells = experiment: MTT antiproliferative assay, MCF-7; type: cell-based, human
Protocol: as §2

A549 cells = experiment: MTT antiproliferative assay, A549; type: cell-based, human; settings: read-out: In vitro antiproliferative activity IC50, A549
Protocol: as §2

[2] = biological target: epidermal growth factor receptor (EGFR) (Homo sapiens, UniProt P00533); experiment: EGFR kinase inhibition, solid-phase ELISA assay
Protocol: All these newly synthesized compounds were evaluated for their inhibitory activities against EGFR kinases using a solid-phase ELISA assay.
EGFR tyrosine kinase activity was determined by an enzyme linked-immunosorbent assay (ELISA) in 96-well plates precoated in a 10 mL reaction volume including 4 mL diluted test compounds, 4 mL substrate and 2 mL ATP. […] The plates were then aspirated and washed twice with 200 mL 0.9% (w/v) NaCl, and incorporation of Pi was determined with an LX300 Epson Diagnostic microplate reader. […] The experiments were replicated at least three times to verify the methodology reproducibility when using the above-mentioned conditions.

[3] = Cytotoxicity test (MTT) on 293T cells; settings: human, 293T human kidney epithelial cells
Protocol: as §1

[4] = read-out: In vitro antiproliferative activity IC50, MCF-7
[5] = read-out: Inhibition activity IC50 against EGFR, solid-phase ELISA assay
[6] = Homo sapiens, MCF7, read-out: In vitro antiproliferative activity IC50, MCF-7

epidermal growth factor receptor (EGFR), sequence (P00533 25-1210): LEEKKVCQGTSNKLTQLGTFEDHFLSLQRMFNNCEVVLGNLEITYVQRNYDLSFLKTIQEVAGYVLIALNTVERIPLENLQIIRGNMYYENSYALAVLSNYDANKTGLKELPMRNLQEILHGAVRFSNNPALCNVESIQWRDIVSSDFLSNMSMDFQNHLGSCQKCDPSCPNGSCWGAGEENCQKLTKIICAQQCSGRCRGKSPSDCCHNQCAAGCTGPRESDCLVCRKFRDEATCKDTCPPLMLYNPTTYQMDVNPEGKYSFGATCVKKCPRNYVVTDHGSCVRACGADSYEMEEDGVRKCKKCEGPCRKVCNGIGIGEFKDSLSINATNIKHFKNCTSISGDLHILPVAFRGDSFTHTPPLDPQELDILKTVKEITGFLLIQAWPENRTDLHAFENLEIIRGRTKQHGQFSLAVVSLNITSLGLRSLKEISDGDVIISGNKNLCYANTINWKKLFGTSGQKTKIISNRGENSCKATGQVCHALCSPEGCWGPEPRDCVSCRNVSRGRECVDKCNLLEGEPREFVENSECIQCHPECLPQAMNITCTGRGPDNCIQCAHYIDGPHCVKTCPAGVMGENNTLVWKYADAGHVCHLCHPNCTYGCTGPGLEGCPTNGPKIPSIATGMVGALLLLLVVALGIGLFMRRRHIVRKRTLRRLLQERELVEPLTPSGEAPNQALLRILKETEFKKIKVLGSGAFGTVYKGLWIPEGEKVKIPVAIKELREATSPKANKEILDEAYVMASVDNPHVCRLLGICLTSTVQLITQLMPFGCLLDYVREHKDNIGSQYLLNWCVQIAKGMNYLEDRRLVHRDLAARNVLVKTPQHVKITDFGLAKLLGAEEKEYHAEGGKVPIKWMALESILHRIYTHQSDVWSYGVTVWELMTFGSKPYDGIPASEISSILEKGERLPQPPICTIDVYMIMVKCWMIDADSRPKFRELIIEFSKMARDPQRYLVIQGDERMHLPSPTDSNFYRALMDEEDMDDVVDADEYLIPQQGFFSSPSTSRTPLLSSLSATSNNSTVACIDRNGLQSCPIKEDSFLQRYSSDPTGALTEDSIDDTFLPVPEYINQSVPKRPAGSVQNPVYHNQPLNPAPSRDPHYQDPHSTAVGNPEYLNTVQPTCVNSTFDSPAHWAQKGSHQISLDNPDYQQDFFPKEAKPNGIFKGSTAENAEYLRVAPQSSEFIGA

IC50 (HeLa cells) [µM] | IC50 (HepG2 cells) [µM] | IC50 (MCF-7 cells; [4]) [µM] | IC50 (A549 cells) [µM] | IC50 [2, 5] [µM] | Molecule | CC50 [1] [µM] | further results
 |  |  |  |  | COc1ccc(C2CC(c3ccc(C)c(C)c3)=NN2C(N)=S)cc1 (stereo not shown) [a] |  | IC50 (EGFR; reported compounds of Figure 1): 0.07 µM
 |  |  |  |  | CC(=O)N1N=C(c2ccc(C(F)(F)F)cc2)CC1c1ccc(C(=O)OCC(C)n2c([N+](=O)[O-])cnc2C)cc1 (stereo not shown) [d] |  | IC50 (EGFR; reported compounds of Figure 1): 0.26 µM
0.6 | 0.67 | 1.52 | 1.41 | 0.65 | COc1cccc(/C=N/NC(=O)c2ccc(N3N=C(c4ccccc4C)CC3c3ccc4ccccc4c3)cc2)c1 (stereo not shown) [Compound H2, (E)-N′-(3-Methoxybenzylidene)-4-(5-(naphthalen-2-yl)-3-(o-tolyl)-4,5-dihydro-1H-pyrazol-1-yl)benzo-hydrazide] | 87.5 | 
22.5 | 28.8 | 21 | 14.5 | 8.47 | COc1cccc(/C=N/NC(=O)c2ccc(N3N=C(c4ccccc4)CC3c3ccc4ccccc4c3)cc2)c1 (stereo not shown) [Compound H1, (E)-N′-(3-Methoxybenzylidene)-4-(5-(naphthalen-2-yl)-3-phenyl-4,5-dihydro-1H-pyrazol-1-yl)benzo-hydrazide] | 98.6 | 
1.19 | 3.26 | 2.45 | 2.24 | 1.25 | COc1ccc(/C=N/NC(=O)c2ccc(N3N=C(c4cccc(C)c4)CC3c3ccc4ccccc4c3)cc2)cc1 (stereo not shown) [Compound H19, (E)-N′-(4-Methoxybenzylidene)-4-(5-(naphthalen-2-yl)-3-(m-tolyl)-4,5-dihydro-1H-pyrazol-1-yl)benzo-hydrazide] | 92.6 | 
2.45 | 3.54 | 2.89 | 3.02 | 2.12 | COc1cccc(/C=N/NC(=O)c2ccc(N3N=C(c4cccc(C)c4)CC3c3ccc4ccccc4c3)cc2)c1 (stereo not shown) [Compound H3, (E)-N′-(3-Methoxybenzylidene)-4-(5-(naphthalen-2-yl)-3-(m-tolyl)-4,5-dihydro-1H-pyrazol-1-yl)benzo-hydrazide] | 92.3 | 
 |  |  |  |  | COc1ccc(/C=N/NC(=O)c2ccc(N3N=C(c4cc(F)cc(F)c4)CC3c3ccc4ccccc4c3)cc2)cc1 (stereo not shown) [Compound H28, (E)-4-(3-(3,5-Difluorophenyl)-5-(naphthalen-2-yl)-4,5-dihydro-1H-pyrazol-1-yl)-N′-(4-methoxy-benzylidene)benzohydrazide] |  | CC50 at 24 h [3]: 82.2 µM; IC50 (HeLa cells; Homo sapiens): 47.7 µM; IC50 (HepG2 cells; Homo sapiens): 48.1 µM; melting point: 238 to 240 °C; IC50 (MCF-7 cells; [6]): 56.1 µM; IC50 [2]: 12.3 µM; IC50 (A549 cells; Homo sapiens): 39.4 µM
 |  |  |  |  | COc1ccc(/C=N/NC(=O)c2ccc(N3N=C(c4ccc(Br)cc4)CC3c3ccc4ccccc4c3)cc2)cc1 (stereo not shown) [Compound H32, (E)-4-(3-(4-Bromophenyl)-5-(naphthalen-2-yl)-4,5-dihydro-1H-pyrazol-1-yl)-N′-(4-methoxybenzylidene)-benzohydrazide] |  | CC50 at 24 h [3]: 83.6 µM; IC50 (HeLa cells; Homo sapiens): 25.6 µM; IC50 (HepG2 cells; Homo sapiens): 32.9 µM; melting point: 238 to 240 °C; IC50 (MCF-7 cells; [6]): 30.2 µM; IC50 [2]: 8.64 µM; IC50 (A549 cells; Homo sapiens): 19.7 µM
 |  |  |  |  | Cc1ccc(C2=NN(C3=NC(=O)CS3)C(c3ccc4ccccc4c3)C2)cc1C (stereo not shown) [Compound e] |  | IC50 (EGFR; reported compound of Figure 1): 0.12 µM
 |  |  |  |  | Cc1ccc(C2=NN(c3ncc(-c4ccc(Cl)cc4)s3)C(c3ccc(F)cc3)C2)cc1C (stereo not shown) [c] |  | IC50 (EGFR; reported compounds of Figure 1): 0.06 µM
 |  |  |  |  | COc1cccc(/C=N/NC(=O)c2ccc(N3N=C(c4ccc(Cl)c(Cl)c4)CC3c3ccc4ccccc4c3)cc2)c1 (stereo not shown) [Compound H15, (E)-4-(3-(3,4-Dichlorophenyl)-5-(naphthalen-2-yl)-4,5-dihydro-1H-pyrazol-1-yl)-N′-(3-methoxy-benzylidene)benzohydrazide] |  | CC50 at 24 h [3]: 88.2 µM; IC50 (HeLa cells; Homo sapiens): 33.6 µM; IC50 (HepG2 cells; Homo sapiens): 38.9 µM; melting point: 234 to 236 °C; IC50 (MCF-7 cells; [6]): 35.2 µM; IC50 [2]: 9.87 µM; IC50 (A549 cells; Homo sapiens): 26.6 µM
 |  |  |  |  | COc1ccc(/C=N/NC(=O)c2ccc(N3N=C(c4ccc(Cl)c(Cl)c4)CC3c3ccc4ccccc4c3)cc2)cc1 (stereo not shown) [Compound H31, (E)-4-(3-(3,4-Dichlorophenyl)-5-(naphthalen-2-yl)-4,5-dihydro-1H-pyrazol-1-yl)-N'-(4-methoxy-benzylidene)benzohydrazide] |  | CC50 at 24 h [3]: 84.8 µM; IC50 (HeLa cells; Homo sapiens): 31.8 µM; IC50 (HepG2 cells; Homo sapiens): 36.3 µM; melting point: 243 to 245 °C; IC50 (MCF-7 cells; [6]): 34.4 µM; IC50 [2]: 9.66 µM; IC50 (A549 cells; Homo sapiens): 24.8 µM
20.7 | 26.7 | 18.4 | 13.3 | 7.89 | COc1ccc(/C=N/NC(=O)c2ccc(N3N=C(c4ccccc4)CC3c3ccc4ccccc4c3)cc2)cc1 (stereo not shown) [Compound H17, (E)-N′-(4-Methoxybenzylidene)-4-(5-(naphthalen-2-yl)-3-phenyl-4,5-dihydro-1H-pyrazol-1-yl)benzo-hydrazide] | 94.2 | 
0.45 | 0.51 | 0.69 | 0.43 | 0.23 | COc1cccc(/C=N/NC(=O)c2ccc(N3N=C(c4ccc(C)cc4)CC3c3ccc4ccccc4c3)cc2)c1 (stereo not shown) [Compound H4, (E)-N′-(3-Methoxybenzylidene)-4-(5-(naphthalen-2-yl)-3-(p-tolyl)-4,5-dihydro-1H-pyrazol-1-yl)benzo-hydrazide] | 98.8 | 
 |  |  |  |  | Cc1ccc(C2=NN(C3=NC(=O)CS3)C(c3ccc(Br)cc3)C2)cc1 (stereo not shown) [b] |  | IC50 (EGFR; reported compounds of Figure 1): 0.24 µM
0.78 | 0.56 | 1.63 | 1.22 | 0.48 | COc1ccc(/C=N/NC(=O)c2ccc(N3N=C(c4ccccc4C)CC3c3ccc4ccccc4c3)cc2)cc1 (stereo not shown) [Compound H18, (E)-N′-(4-Methoxybenzylidene)-4-(5-(naphthalen-2-yl)-3-(o-tolyl)-4,5-dihydro-1H-pyrazol-1-yl)benzo-hydrazide] | 90.6 | 
 |  |  |  |  | COc1cccc(/C=N/NC(=O)c2ccc(N3N=C(c4ccccc4F)CC3c3ccc4ccccc4c3)cc2)c1 (stereo not shown) [Compound H9, (E)-4-(3-(2-Fluorophenyl)-5-(naphthalen-2-yl)-4,5-dihydro-1H-pyrazol-1-yl)-N′-(3-methoxybenzylidene)-benzohydrazide] |  | CC50 at 24 h [3]: 83.4 µM; IC50 (HeLa cells; Homo sapiens): 63.8 µM; IC50 (HepG2 cells; Homo sapiens): 76.5 µM; melting point: 235 to 237 °C; IC50 (MCF-7 cells; [6]): 70.4 µM; IC50 [2]: 16.2 µM; IC50 (A549 cells; Homo sapiens): 50.6 µM
 |  |  |  |  | COc1ccc(/C=N/NC(=O)c2ccc(N3N=C(c4cccc(F)c4)CC3c3ccc4ccccc4c3)cc2)cc1 (stereo not shown) [Compound H26, (E)-4-(3-(3-Fluorophenyl)-5-(naphthalen-2-yl)-4,5-dihydro-1H-pyrazol-1-yl)-N′-(4-methoxybenzylidene)-benzohydrazide] |  | CC50 at 24 h [3]: 94.3 µM; IC50 (HeLa cells; Homo sapiens): 85.2 µM; IC50 (HepG2 cells; Homo sapiens): 80.1 µM; melting point: 240 to 242 °C; IC50 (MCF-7 cells; [6]): 77.5 µM; IC50 [2]: 18.6 µM; IC50 (A549 cells; Homo sapiens): 56.4 µM

Molecule | IC50 (HeLa cells) [µM] | IC50 (HepG2 cells) [µM] | IC50 (MCF-7 cells; [4]) [µM] | IC50 (A549 cells) [µM] | IC50 [2, 5] [µM] | CC50 [1] [µM] | further results
(E)-N′-(3-Methoxybenzylidene)-4-(3-(4-methoxyphenyl)-5-(naphthalen-2-yl)-4,5-dihydro-1H-pyrazol-1-yl)-benzohydrazide [Compound H6] | 13.2 | 11.5 | 10.2 | 8.32 |  | 81.8 | 
(E)-N′-(4-Methoxybenzylidene)-4-(3-(4-methoxyphenyl)-5-(naphthalen-2-yl)-4,5-dihydro-1H-pyrazol-1-yl)-benzohydrazide [Compound H22] | 12.3 | 10.5 | 9.69 | 7.12 |  | 84.7 | 
(E)-4-(3-(4-Ethylphenyl)-5-(naphthalen-2-yl)-4,5-dihydro-1H-pyrazol-1-yl)-N′-(4-methoxybenzylidene)-benzohydrazide [Compound H21] | 7.93 | 5.06 | 6.33 | 4.54 |  | 82.6 | 
(E)-4-(3-(4-Ethylphenyl)-5-(naphthalen-2-yl)-4,5-dihydro-1H-pyrazol-1-yl)-N′-(3-methoxybenzylidene)-benzohydrazide [Compound H5] | 8.71 | 6.16 | 7.72 | 5.49 |  | 92.5 | 
